Data published in patent publication US9089572B2, “Inhibitors of p97” (California Institute of Technology, priority 2008, dated 2015).

Experiments:
MRC5-WT = assay: CellTiter-Glo growth inhibition, parental MRC5 cells; format: cell-based; conditions: Homo sapiens, 48 h at 37° C., read-out: Cell line inhibition of growth GI50 MRC5-WT
RPMI8226 cells = assay: Accumulation of high molecular weight ubiquitin conjugates (anti-ubiquitin immunoblot), RPMI8226 cells; format: cell-based; conditions: 1 h at 37° C.
Text: (§1) To evaluate whether compound 2 can target p97 activity in cells, we sought to determine whether this compound induces accumulation of high molecular weight ubiquitin conjugates, since it is known that RNAi-mediated knockdown of p97 in mammalian cells has this effect (Wojcik, C. et al. J. Cell Sci. (2004) 117, 281-292). As a positive control for this experiment, the proteasome inhibitor MG132 was used. […] The cells were then harvested, lysed, and centrifuged to generate soluble and insoluble fractions. These fractions were then immunoblotted with anti-ubiquitin antibodies to detect accumulation of high molecular weight conjugates. Blots were also probed with anti-PSTAIRE antibodies as a loading control. […] This effect is particularly pronounced in the insoluble fraction.
(§2) To evaluate whether compound 8 can target p97 activity in cells, it was determined whether this compound induces accumulation of high molecular weight ubiquitin conjugates, since it is known that RNAi-mediated knockdown of p97 in mammalian cells has this effect (Wojcik, C. et al. J. Cell Sci. (2004) 117, 281-292). The proteasome inhibitor bortezomib (velcade) was employed as a positive control for this experiment. HeLa (FIG. 25) or RPMI8226 (FIG. 26) cells were treated with Velcade, compound 8, or a combination thereof for 1 h at 37° C. The cells were then harvested and cell lysates were immunoblotted with anti-ubiquitin antibodies to detect accumulation of high molecular weight conjugates. Blots were also probed with anti-PSTAIRE antibodies as a loading control.

[1] = test system: HEK293 cells that stably expressed TCR-GFP; assay: Accumulation of ERAD reporter TCR-alpha-GFP; format: cell-based; conditions: 2 h at 37° C., fluorescence microscopy
Protocol: Since p97 has a well-established role in ERAD, it was also determined whether compound 2 affects the accumulation of an ERAD-reporter, TCR-alpha-GFP. HEK293 cells that stably expressed TCR-GFP were treated with MG132 (see FIG. 19), compound 1 or compound 2 (FIG. 20) at the indicated concentrations for 2 h at 37° C. prior to being imaged by fluorescence microscopy to determine TCR-GFP accumulation. […] It was thus concluded that compound 2 inhibits p97 in cells, resulting in the accumulation of both soluble and insoluble high molecular weight ubiquitin conjugates and UPS substrates whose degradation depends upon p97.
HEK293 cells that stably expressed TCR-GFP were treated with the Velcade (FIG. 30) or compound 8 (FIG. 31) at the indicated concentrations for 2 h at 37° C. prior to being imaged by fluorescence microscopy to quantify TCR-GFP accumulation.

Ub-G76V-GFP/HeLa cells = assay: Degradation of pre-accumulated Ub-G76V-GFP (cycloheximide chase after MG132 washout); format: cell-based; conditions: for % K: relative to 0 μM
Protocol: To evaluate this possibility, an assay was developed to determine the rate of degradation of pre-accumulated Ub-G76V-GFP molecules. […] Cells were then washed with PBS three times remove the MG132. Cells were then refreshed by adding DMEM containing cycloheximide (50 μg/mL; to block production of more Ub-G76V-GFP) and test compounds (0˜10 μM) were added into cells. Eight 96-well plates were prepared and one of the plates was imaged at 25, 50, 70, 100, 110, 125, 145, or 170 min after washing with PBS three times. After washing out MG132, degradation of pre-accumulated Ub-G76V-GFP appears to follow pseudo-first order reaction. Rate constant (K; 1/min) can be determined from the slope of plotting Ln (Fold Accumulation) versus Time (min) (see FIG. 17 and FIG. 18).
Ub-G76V-GFP/HeLa cells were treated with MG132 (2 μM) for 1 h and washed with PBS three times. DMEM containing cycloheximide (50 μg/mL) and compound 8 (0-10 μM) was added into cells. Eight 96-well plates were prepared and one of the plates was imaged at 25, 50, 70, 100, 110, 125, 145, or 170 min after washing with PBS three times.

wild type p97 = wild type p97 (Mus musculus, UniProt Q01853); assay: ATP Kinase glo assay of p97 ATPase activity; format: biochemical
Sequence of wild type p97 (Q01853 whole entry): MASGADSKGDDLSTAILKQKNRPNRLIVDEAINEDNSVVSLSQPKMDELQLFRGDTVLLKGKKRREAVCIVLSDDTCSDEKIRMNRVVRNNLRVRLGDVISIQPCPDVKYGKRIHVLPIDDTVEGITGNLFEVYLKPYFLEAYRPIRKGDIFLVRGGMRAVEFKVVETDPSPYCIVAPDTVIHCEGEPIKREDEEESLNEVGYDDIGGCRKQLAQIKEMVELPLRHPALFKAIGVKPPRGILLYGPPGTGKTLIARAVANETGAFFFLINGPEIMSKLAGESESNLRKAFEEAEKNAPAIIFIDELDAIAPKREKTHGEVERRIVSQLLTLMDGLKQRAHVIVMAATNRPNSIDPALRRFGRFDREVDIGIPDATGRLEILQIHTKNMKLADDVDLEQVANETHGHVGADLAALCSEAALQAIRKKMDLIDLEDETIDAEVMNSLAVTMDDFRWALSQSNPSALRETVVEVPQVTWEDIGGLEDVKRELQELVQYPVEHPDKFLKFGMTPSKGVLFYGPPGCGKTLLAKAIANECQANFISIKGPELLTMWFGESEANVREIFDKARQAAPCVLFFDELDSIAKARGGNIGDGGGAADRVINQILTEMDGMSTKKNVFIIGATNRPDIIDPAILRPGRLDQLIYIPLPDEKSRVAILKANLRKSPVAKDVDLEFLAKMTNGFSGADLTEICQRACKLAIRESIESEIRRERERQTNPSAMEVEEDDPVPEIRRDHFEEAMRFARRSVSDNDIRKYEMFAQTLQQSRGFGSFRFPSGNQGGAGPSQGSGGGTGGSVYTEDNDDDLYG
Protocol: An assay that measures the ATPase activity of p97 and that is amenable to high-throughput screening (HTS) was developed based on the commercially-available “Kinase-Glo” assay format, wherein the ATP hydrolytic activity of p97 is monitored by using luciferase to measure the level of residual ATP in a sample following incubation with p97. Using this assay, circa 16,000 compounds were screened to evaluate their effect on the ATP hydrolysis activity of p97. This effort yielded several candidates that inhibit p97 activity. Among the compounds that were identified, one that was of particular interest was compound 8 (9-(2-nitrovinyl) anthracene shown below:
It was shown that a key feature of compound 8 is that its mode of inhibition is dependent upon the presence of a cysteine at position 522 in the D2 domain of p97.

MRC5-SV40 = assay: CellTiter-Glo growth inhibition, MRC5 cells engineered to express SV40; format: cell-based
HeLa cells = assay: Accumulation of high molecular weight ubiquitin conjugates (anti-ubiquitin immunoblot), HeLa cells; format: cell-based; conditions: 1 h at 37° C.
Text: as §1, §2

[2] = test system: HeLa cell line that stably expresses UbG76V-GFP; assay: Accumulation of UbG76V-GFP in HeLa cells (fluorescence microscopy); format: cell-based; conditions: 1 h at 37° C., fluorescence microscopy
Protocol: As a control, the same cells were treated with the proteasome inhibitor MG132. In the latter set of experiments, a HeLa cell line that stably expresses UbG76V-GFP was transfected with either wild type (WT), D1 mutant (E305Q), D2 mutant (E578Q) or E305Q, E578Q double mutant (QQ) murine 97-pcDNA4.1 plasmid (0.05 μg/100 μL) in a 96-well plate. After 23 h, the intensity of UbG76V-GFP signal was measured on a Molecular Devices ImageXpress automated fluorescence microscope. […] The direct accumulation of Ub-G76V-GFP caused by compound 2 at 25 μM is 4-fold less than that caused by MG132 at 2 μM. This is likely due to the fact that only fully folded Ub-G76V-GFP should require p97 for degradation by the proteasome.
As a second test of whether compound 8 can inhibit p97 in vivo, it was evaluated whether it can cause accumulation of the UbG76V-GFP reporter. A HeLa cell line that stably expresses UbG76V-GFP was treated with compound 8 for 1 h at 37° C., and was then evaluated by fluorescence microscopy. As a control, the same cells were treated with the proteasome inhibitor MG132. […] The level of GFP fluorescence was quantified in cells treated with compound 8 at different doses and for different periods of time (FIG. 28).

Structure (SMILES): O=[N+]([O-])C=Cc1c2ccccc2cc2ccccc12 [Compound 8, 9-(2-nitrovinyl) anthracene]
- GI50 (MRC5-WT): 17 ± 9 µM
- accumulation of high molecular weight ubiquitin conjugates, RPMI8226 cells (RPMI8226 cells): caused accumulation of high molecular weight ubiquitin conjugates
- accumulation of TCR-alpha-GFP [1]: induced accumulation of the ERAD reporter, TCR-alpha-GFP
- K, rate constant of Ub-G76V-GFP degradation (Ub-G76V-GFP/HeLa cells; 0.01 μM): 0.034 min⁻¹
- % K (Ub-G76V-GFP/HeLa cells; 0.01 μM): 89%
- K, rate constant of Ub-G76V-GFP degradation (Ub-G76V-GFP/HeLa cells; 0.04 μM): 0.033 min⁻¹
- % K (Ub-G76V-GFP/HeLa cells; 0.04 μM): 87%
- K, rate constant of Ub-G76V-GFP degradation (Ub-G76V-GFP/HeLa cells; 0.16 μM): 0.032 min⁻¹
- % K (Ub-G76V-GFP/HeLa cells; 0.16 μM): 85%
- K, rate constant of Ub-G76V-GFP degradation (Ub-G76V-GFP/HeLa cells; 0.63 μM): 0.031 min⁻¹
- % K (Ub-G76V-GFP/HeLa cells; 0.63 μM): 81%
- K, rate constant of Ub-G76V-GFP degradation (Ub-G76V-GFP/HeLa cells; 2.5 μM): 0.027 min⁻¹
- % K (Ub-G76V-GFP/HeLa cells; 2.5 μM): 71%
- K, rate constant of Ub-G76V-GFP degradation (Ub-G76V-GFP/HeLa cells; 10 μM): 0.023 min⁻¹
- % K (Ub-G76V-GFP/HeLa cells; 10 μM): 60%
- IC50 (Ub-G76V-GFP/HeLa cells; Homo sapiens, HeLa, 1 h, read-out: IC50 on the decay of Ub-G76V-GFP): 10 ± 4 µM
- inhibition of wild type p97 compared with the C522A-p97 mutant (wild type p97): significantly greater degree
- GI50 (MRC5-SV40; Homo sapiens, MRC5, 48 h at 37° C., CellTiter-Glo, read-out: Cell line inhibition of growth GI50 MRC5-SV40): 5 ± 3 µM
- greater sensitivity of SV40-transformed cells than WT cell line (MRC5-SV40; MRC5-SV40 vs MRC5-WT GI50): 3.4 fold
- accumulation of high molecular weight ubiquitin conjugates, HeLa cells (HeLa cells): caused accumulation of high molecular weight ubiquitin conjugates
- accumulation of UbG76V-GFP [2]: caused detectable accumulation of UbG76V-GFP
